Source: patent publication US8987286B2, “Substituted pyrimido[1,2-b]indazoles and their use as modulators of the Pi3K/Akt pathway” (Bayer Intellectual Property GmbH, priority 2010, dated 2015)
pIC50: −log10 of the molar value. Counter-ions that a name gives are not always drawn.

Target: Akt1 (Homo sapiens (Human), UniProt P31749)
Experiment: Akt1 kinase assay (Akt1 TR-FRET assay)
Assay type: biochemical
Conditions: His-tagged human recombinant full-length Akt1, 10 μM ATP, 1 μM peptide substrate
Source text: Biological Assay 1.0: Akt1 Kinase Assay
Akt1 inhibitory activity of compounds of the present invention was quantified employing the Akt1 TR-FRET assay as described in the following paragraphs.
His-tagged human recombinant kinase full-length Akt1 expressed in insect cells was purchased form Invitrogen (part number PV 3599). As substrate for the kinase reaction the biotinylated peptide biotin-Ahx-KKLNRTLSFAEPG (C-terminus in amide form) was used which can be purchased e.g. from the company Biosynthan GmbH (Berlin-Buch, Germany).
For the assay 50 nl of a 100 fold concentrated solution of the test compound in DMSO was pipetted into a black low volume 384 well microtiter plate (Greiner Bio-One, Frickenhausen, Germany), 2 μl of a solution of Akt1 in assay buffer [50 mM TRIS/HCl pH 7.5, 5 mM MgCl2, 1 mM dithiothreitol, 0.02% (v/v) Triton X-100 (Sigma)] were added and the mixture was incubated for 15 min at 22° C. to allow pre-binding of the test compounds to the enzyme before the start of the kinase reaction. Then the kinase reaction was started by the addition of 3 μl of a solution of adenosine-tri-phosphate (ATP, 16.7 μM=>final conc. in the 5 μl assay volume is 10 μM) and substrate (1.67 μM=>final conc. in the 5 μl assay volume is 1 μM) in assay buffer and the resulting mixture was incubated for a reaction time of 60 min at 22° C. The concentration of Akt1 in the assay was adjusted depending of the activity of the enzyme lot and was chosen appropriate to have the assay in the linear range, typical enzyme concentrations were in the range of about 0.05 ng/μl (final conc. in the 5 μl assay volume).
The reaction was stopped by the addition of 5 μl of a solution of HTRF detection reagents (200 nM streptavidine-XL665 [Cisbio] and 1.5 nM anti-phosho-Serine antibody [Millipore, cat. #35-001] and 0.75 nM LANCE Eu-W 1024 labeled anti-mouse IgG antibody [Perkin Elmer]) in an aqueous EDTA-solution (100 mM EDTA, 0.1% (w/v) bovine serum albumin in 50 mM HEPES/NaOH pH 7.5).
The resulting mixture was incubated 1 h at 22° C. to allow the binding of the biotinylated phosphorylated peptide to the streptavidine-XL665 and the antibodies. Subsequently the amount of phosphorylated substrate was evaluated by measurement of the resonance energy transfer from the anti-mouse-IgG-Eu-Chelate to the streptavidine-XL665. Therefore, the fluorescence emissions at 620 nm and 665 nm after excitation at 350 nm was measured in a HTRF reader, e.g. a Rubystar (BMG Labtechnologies, Offenburg, Germany) or a Viewlux (Perkin-Elmer). The ratio of the emissions at 665 nm and at […] was taken as the measure for the amount of phosphorylated substrate. The data were normalised (enzyme reaction without inhibitor=0% inhibition, all other assay components but no enzyme=100% inhibition).

Chain of Akt1 (P31749 whole entry): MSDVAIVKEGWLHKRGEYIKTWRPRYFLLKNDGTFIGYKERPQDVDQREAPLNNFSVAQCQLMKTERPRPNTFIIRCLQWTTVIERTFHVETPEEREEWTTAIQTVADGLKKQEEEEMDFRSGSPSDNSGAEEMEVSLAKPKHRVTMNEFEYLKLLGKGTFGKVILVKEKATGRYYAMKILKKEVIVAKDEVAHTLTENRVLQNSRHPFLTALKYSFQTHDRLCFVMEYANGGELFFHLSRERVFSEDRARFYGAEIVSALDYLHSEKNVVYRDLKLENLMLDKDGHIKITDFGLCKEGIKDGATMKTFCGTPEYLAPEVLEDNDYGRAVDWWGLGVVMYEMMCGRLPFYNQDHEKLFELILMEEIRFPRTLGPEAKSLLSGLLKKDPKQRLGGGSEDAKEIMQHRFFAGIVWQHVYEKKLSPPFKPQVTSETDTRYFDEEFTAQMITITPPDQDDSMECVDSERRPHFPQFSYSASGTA

| Compound | pIC50 |
| --- | --- |
| NC1(c2ccc(-c3nc4c5cccc(-c6cn[nH]c6)c5nn4cc3-c3ccccc3)cc2)CCC1 [Example 8.5, 1-{4-[3-Phenyl-7-(1H-pyrazol-4-yl)pyrimido[1,2-b]indazol-2-yl]-phenyl}cyclobutylamine×0.5 formiate] | 6.80 |
| COC(=O)c1cccc2c1nn1cc(-c3ccccc3)c(-c3ccc(C4(N)CCC4)cc3)nc21 [Example 10, 2-[4-(1-Aminocyclobutyl)phenyl]-3-phenylpyrimido[1,2-b]indazole-7-carboxylic acid methyl ester formiate] | 6.13 |
| NC1(c2ccc(-c3nc4c5cc(F)ccc5nn4c(NC4CC4)c3-c3ccccc3)cc2)CCC1 [Example 2, 2-[4-(1-Aminocyclobutyl)phenyl]-N-cyclopropyl-9-fluoro-3-phenylpyrimido[1,2-b]indazol-4-amine] | 6.28 |
| NC1(c2ccc(-c3nc4c5cc(Br)ccc5nn4cc3-c3ccccc3)cc2)CCC1 [Example 6.1, 1-[4-(9-Bromo-3-phenylpyrimido[1,2-b]indazol-2-yl)phenyl]cyclobutylamine] | 7.39 |
| CS(=O)(=O)c1ccc(-c2ccc3c(c2)nn2cc(-c4ccccc4)c(-c4ccc(C5(N)CCC5)cc4)nc32)cc1 [Example 4.1, 1-{4-[8-(4-Mesylphenyl)-3-phenylpyrimido[1,2-b]indazol-2-yl]-phenyl}cyclobutylamine] | 7.23 |
| NC1(c2ccc(-c3nc4c5cc(-c6cccc(CO)c6)ccc5nn4cc3-c3ccccc3)cc2)CCC1 [Example 6.3, 3-{2-[4-(1-Aminocyclobutyl)phenyl]-3-phenylpyrimido[1,2-b]indazol-9-yl}benzyl alcohol formiate] | 7.80 |
| NC1(c2ccc(-c3nc4c5ccc(-c6ccc(F)c(CO)c6)cc5nn4cc3-c3ccccc3)cc2)CCC1 [Example 4.4, 5-{2-[4-(1-Aminocyclobutyl)phenyl]-3-phenylpyrimido[1,2-b]indazol-8-yl}-2-fluorobenzyl alcohol] | 7.37 |
| NC1(c2ccc(-c3nc4c5ccc(-c6ccn[nH]6)cc5nn4cc3-c3ccccc3)cc2)CCC1 [Example 15.0, 1-{4-[3-Phenyl-8-(1H-pyrazol-5-yl)pyrimido[1,2-b]indazol-2-yl]phenyl}-cyclobutylamine] | 7.82 |
| CS(=O)(=O)c1cccc(-c2cccc3c2nn2cc(-c4ccccc4)c(-c4ccc(C5(N)CCC5)cc4)nc32)c1 [Example 8.4, 1-{4-[7-(3-Mesylphenyl)-3-phenylpyrimido[1,2-b]indazol-2-yl]-phenyl}cyclobutylamine] | 4.77 |
| NC1(c2ccc(-c3nc4c5ccc(-c6ccc(O)nc6)cc5nn4cc3-c3ccccc3)cc2)CCC1 [Example 4.12, 5-{2-[4-(1-Aminocyclobutyl)phenyl]3-phenylpyrimido[1,2-b]indazol-8-yl}pyridin-2-ol] | 7.85 |
| Cc1ccc(-c2ccc3nn4cc(-c5ccccc5)c(-c5ccc(C6(N)CCC6)cc5)nc4c3c2)cc1 [Example 5.1, 1-[4-(3-Phenyl-9-p-tolylpyrimido[1,2-b]indazol-2-yl)phenyl]cyclobutylamine] | 6.92 |
| COC(=O)/C=C/c1ccc2nn3cc(-c4ccccc4)c(-c4ccc(C5(N)CCC5)cc4)nc3c2c1 [Example 15.4, (E)-3-{2-[4-(1-Aminocyclobutyl)phenyl]-3-phenylpyrimido[1,2-b]indazol-9-yl}acrylic acid methyl ester] | 8.00 |
| NC(=O)c1cccc(-c2ccc3c(c2)nn2cc(-c4ccccc4)c(-c4ccc(C5(N)CCC5)cc4)nc32)c1 [Example 4.9, 3-{2-[4-(1-Aminocyclobutyl)phenyl]-3-phenylpyrimido[1,2-b]indazol-8-yl}benzamide] | 7.80 |
| COC(=O)c1cccc(-c2ccc3nn4cc(-c5ccccc5)c(-c5ccc(C6(N)CCC6)cc5)nc4c3c2)c1 [Example 5.2, 3-{2-[4-(1-Aminocyclobutyl)phenyl]-3-phenylpyrimido[1,2-b]indazol-9-yl}benzoic acid methyl ester] | 6.89 |
| NC1(c2ccc(-c3nc4c5cc(-c6ccn[nH]6)ccc5nn4cc3-c3ccccc3)cc2)CCC1 [Example 15.2, 1-{4-[3-Phenyl-9-(1H-pyrazol-5-yl)pyrimido[1,2-b]indazol-2-yl]-phenyl}cyclobutylamine] | 8.00 |
| NC1(c2ccc(-c3nc4c5cc(-c6cn[nH]c6)ccc5nn4cc3-c3ccccc3)cc2)CCC1 [Example 6.7, 1-{4-[3-Phenyl-9-(1H-pyrazol-4-yl)pyrimido[1,2-b]indazol-2-yl]phenyl}-cyclobutylamine] | 7.72 |
| NC1(c2ccc(-c3nc4c5ccc(-c6ccc(F)c(O)c6)cc5nn4cc3-c3ccccc3)cc2)CCC1 [Example 4.5, 5-{2-[4-(1-Aminocyclobutyl)phenyl]-3-phenylpyrimido[1,2-b]indazol-8-yl}-2-fluorophenol formiate] | 7.46 |
| NC1(c2ccc(-c3nc4c5ccc(-c6ccc(F)cc6)cc5nn4cc3-c3ccccc3)cc2)CCC1 [Example 4.2, 1-{4-[8-(4-Fluorophenyl)-3-phenylpyrimido[1,2-b]indazol-2-yl]-phenyl}cyclobutylamine] | 6.64 |
| COC(=O)c1ccc2c(c1)nn1cc(-c3ccccc3)c(-c3ccc(C4(N)CCC4)cc3)nc21 [Example 4.8, 2-[4-(1-Aminocyclobutyl)phenyl]-3-phenylpyrimido[1,2-b]indazole-8-carboxylic acid methyl ester] | 6.95 |
| NC1(c2ccc(-c3nc4c5cc(-c6ccc(F)c(CO)c6)ccc5nn4cc3-c3ccccc3)cc2)CCC1 [Example 6.6, 5-{2-[4-(1-Aminocyclobutyl)phenyl]-3-phenylpyrimido[1,2-b]indazol-9-yl}-2-fluorobenzyl alcohol] | 8.00 |
| N#Cc1cccc(-c2ccc3c(c2)nn2cc(-c4ccccc4)c(-c4ccc(C5(N)CCC5)cc4)nc32)c1 [Example 4, 3-{2-[4-(1-Aminocyclobutyl)phenyl]-3-phenylpyrimido[1,2-b]indazol-8-yl}-benzonitrile] | 6.85 |
| NC1(c2ccc(-c3nc4c5cccc(Br)c5nn4cc3-c3ccccc3)cc2)CCC1 [Example 8.1, 1-[4-(7-Bromo-3-phenylpyrimido[1,2-b]indazol-2-yl)phenyl]cyclobutylamine hydrochloride] | 6.77 |
| Cc1cc(-c2ccc3nn4cc(-c5ccccc5)c(-c5ccc(C6(N)CCC6)cc5)nc4c3c2)[nH]n1 [Example 15.3, 1-{4-[9-(3-Methyl-1H-pyrazol-5-yl)-3-phenylpyrimido[1,2-b]indazol-2-yl]phenyl}cyclobutylamine] | 8.22 |
| NC1(c2ccc(-c3nc4c5ccc(Br)cc5nn4cc3-c3ccccc3)cc2)CCC1 [Example 4.3, 1-[4-(8-Bromo-3-phenylpyrimido[1,2-b]indazol-2-yl)phenyl]cyclobutylamine hydrochloride] | 7.06 |
| NC1(c2ccc(-c3nc4c5cc(-c6ccc(CO)cc6)ccc5nn4cc3-c3ccccc3)cc2)CCC1 [Example 6.4, 4-{2-[4-(1-Aminocyclobutyl)phenyl]-3-phenylpyrimido[1,2-b]indazol-9-yl}benzyl alcohol formiate] | 7.74 |
| N#Cc1ccc(-c2ccc3nn4cc(-c5ccccc5)c(-c5ccc(C6(N)CCC6)cc5)nc4c3c2)cc1 [Example 6.2, 4-{2-[4-(1-Aminocyclobutyl)phenyl]-3-phenylpyrimido[1,2-b]indazol-9-yl}benzonitrile formiate] | 7.01 |
| CS(=O)(=O)c1cccc(-c2ccc3c(c2)nn2cc(-c4ccccc4)c(-c4ccc(C5(N)CCC5)cc4)nc32)c1 [Example 4.7, 1-{4-[8-(3-Mesylphenyl)-3-phenylpyrimido[1,2-b]indazol-2-yl]phenyl}cyclobutylamine formiate] | 7.60 |
| NC1(c2ccc(-c3nc4c5cccc(-c6ccc(CO)cc6)c5nn4cc3-c3ccccc3)cc2)CCC1 [Example 8.3, 4-{2-[4-(1-Aminocyclobutyl)phenyl]-3-phenylpyrimido[1,2-b]indazol-7-yl}benzyl alcohol formiate] | 6.14 |
| NC(=O)/C=C/c1cccc2c1nn1cc(-c3ccccc3)c(-c3ccc(C4(N)CCC4)cc3)nc21 [Example 14, (E)-3-{2-[4-(1-Aminocyclobutyl)phenyl]-3-phenylpyrimido[1,2-b]indazol-7-yl}-acrylamide] | 6.24 |
